Assay results: article PMC10970644, “Molecular Pharmacology of Gelsemium Alkaloids on Inhibitory Receptors” (International Journal of Molecular Sciences, 2024)

What was measured:
[1] = system: Spinal GlyRs; conditions: cited from earlier work
[2] = humans; cited from earlier work
[3] = biological target: T1, α1β GlyR (Rattus norvegicus, UniProt P07727+P20781); test: cell-based
T1 construct: The cells were transfected with plasmids encoding the following proteins; expressed in transfected cells; host or cells: HEK293 (ATCC CRL-1573)
T1 sequence (P07727 29-457): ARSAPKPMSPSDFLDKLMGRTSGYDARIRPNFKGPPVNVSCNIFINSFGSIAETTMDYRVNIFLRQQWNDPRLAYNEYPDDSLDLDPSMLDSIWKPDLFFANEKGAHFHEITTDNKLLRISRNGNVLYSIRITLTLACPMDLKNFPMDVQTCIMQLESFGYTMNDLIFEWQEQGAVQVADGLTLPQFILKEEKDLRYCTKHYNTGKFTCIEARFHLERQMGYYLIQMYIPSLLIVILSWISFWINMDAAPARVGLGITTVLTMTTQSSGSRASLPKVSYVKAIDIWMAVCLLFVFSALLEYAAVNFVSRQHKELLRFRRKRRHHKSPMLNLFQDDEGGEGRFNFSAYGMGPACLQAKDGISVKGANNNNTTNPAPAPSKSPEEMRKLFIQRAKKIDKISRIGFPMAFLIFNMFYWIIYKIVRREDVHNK
T1 sequence (P20781 23-496): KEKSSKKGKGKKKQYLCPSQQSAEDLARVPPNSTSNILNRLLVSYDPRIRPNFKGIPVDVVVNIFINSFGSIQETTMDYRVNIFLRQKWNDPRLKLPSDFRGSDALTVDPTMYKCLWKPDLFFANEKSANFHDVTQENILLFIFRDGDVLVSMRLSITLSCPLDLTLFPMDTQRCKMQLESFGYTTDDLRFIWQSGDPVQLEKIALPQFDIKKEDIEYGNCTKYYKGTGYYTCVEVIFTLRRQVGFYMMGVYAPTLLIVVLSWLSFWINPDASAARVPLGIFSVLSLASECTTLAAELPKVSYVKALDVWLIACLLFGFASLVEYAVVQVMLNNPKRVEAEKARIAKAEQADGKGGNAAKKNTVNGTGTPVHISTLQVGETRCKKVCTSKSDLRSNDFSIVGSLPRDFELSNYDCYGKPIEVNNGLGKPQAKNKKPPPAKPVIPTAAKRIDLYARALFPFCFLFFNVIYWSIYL
Protocol: The cells were transfected with plasmids encoding the following proteins: (i). rat GlyR α (1, 2, 3) subunits alone or combined with rat β subunits (Uniprot Accession Numbers: Q546L7, P22771, P20236, P20781); and (ii). rat GABAAR α1 combined with rat β2 and γ2 subunits (Uniprot Accession Numbers: P62813, P63138, P18508). The EGFP expression was used as a marker of successful protein expression. The transfection was performed using Lipofectamine 2000 (Invitrogen, ThermoFisher, Carlsbad, CA, USA) using the fabricant protocol. The plasmids used to express GlyRs and GABAARs have been previously described. To track the successful expression of GlyR β subunits and the GABAA γ2 or β2 subunit, these proteins were subcloned in the pIRES2-EGFP vector. The transfection ratio to obtain β-containing GlyRs was 1:5 of α:β, while the expression of γ2-containing GABAA receptors was 1:2:5 of α:β:γ2 [14, 15]. Chimeric GlyRs were described in a previous report. Site directed mutagenesis was performed by Charm Gene Science Mutagenex LLC. (Cumming, GA, USA). All the constructs were checked by full-length sequencing (SNPSaurus, Eugene, OR, USA).
In brief, patch electrodes (3–4 MΩ) were pulled from borosilicate glasses in a PC-100 puller (Narishige, Tokyo, Japan); then, they were filled with an intracellular solution, which contained (in mM) 120 CsCl, 8 EGTA, 10 HEPES (pH 7.4), 4 MgCl2, 0.5 GTP, and 2 ATP. The extracellular solution contained (in mM) 140 NaCl, 5.4 KCl, 2.0 CaCl2, 1.0 MgCl2, 10 HEPES (pH 7.4), and 10 glucose. Whole-cell patch-clamp recordings were performed at −60 mV with an Axoclamp 200B (Molecular Devices, Sunnyvale, CA, USA) or with HEKA EPC-10 (HEKA Elektronik GmbH, Reutlingen, Germany) amplifiers. […] Brief (3–5 s) pulses of agonist together with alkaloids were applied to cells. Stock solutions of the alkaloids were prepared in high purity distilled water. Aliquots of these stock solutions were diluted in reservoirs containing extracellular solution. […] The concentration–response curve parameters for the alkaloid inhibition (IC50, nH, and the maximal current inhibition) were obtained from the fitted curve of normalized concentration–response data points to the equation Iagonist = Imax (agonist)nH/((agonist)nH + (EC50)nH). The IC50 curves are best-fit mean ± SE from pooled data. […] The inhibition constant (Ki) was calculated using the Cheng–Prusoff equation (Ki = IC50/((2 + ([Agonist]/EC50)^nH)^1/nH − 1). The concentration of agonist corresponds to the sub-saturating agonist concentration used to obtain the IC50 for each alkaloid on a given GlyR subtype.

## C=C[C@]12CN(C)[C@@H]3[C@H]4CO[C@H](C[C@H]41)[C@]1(C(=O)Nc4ccccc41)[C@@H]32 [gelsemine]
[1]
  IC50: ~42 µM
[2]
  lethal plasma concentrations: 13 to 30 µg/mL

## C=C[C@@]12CN(C)[C@H]3C[C@]14C(=Nc1ccccc14)[C@H]1C[C@@H]2[C@@H]3CO1 [koumine]
[3]
  IC50: 32.5 ± 13.2 µM
[3]; Hill coefficient of inhibition curve
  nH: 0.9 ± 0.5
[3]; percentage change of glycine-evoked current
  Maximal Modulation: −90.8 ± 2.3%
